Measured values: the supplement of paper PMC10307832

What was measured:
Experiment in all cases: relative viability (nuclei count vs DMSO), 5 days (fraction); higher = more cells survive
[1] = compound: C1=CC(=CC=C1NC(=S)NNC2=C(C=C(C=C2[N+](=O)[O-])C(F)(F)F)[N+](=O)[O-])F [Kobe2602] + Nc1ncn([C@H]2C[C@H](O)[C@@H](CO)O2)c(=O)n1 [Decitabine] (partner 2 µM)
How it was run: (§1)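 Five library-drug doses in √10 steps were combined with a fixed anchor-drug dose, or a single drug was given alone, by pin tool to lung cancer cell lines in 1536-well plates the day after seeding. Nuclei were stained and counted after 5 days. Relative viability is the nuclei count in treated wells over that in vehicle wells, taken as the median of duplicate plates.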

[2] = compound: COc1cc2nccc(Oc3ccc(NC(=O)C4(C(=O)Nc5ccc(F)cc5)CC4)cc3)c2cc1OC [Cabozantinib] + Cc1nc(Nc2ncc(C(=O)Nc3c(C)cccc3Cl)s2)cc(N2CCN(CCO)CC2)n1 [Dasatinib] (partner 0.075 µM)
How it was run: as §1

[3] = compound: O[C@@H](COc1cccc2ncccc12)CN1CCN([C@@H]2c3ccccc3[C@@H]3[C@H](c4ccccc42)C3(F)F)CC1 [Zosuquidar] + CC(=O)Nc1cccc(-n2c(=O)n(C3CC3)c(=O)c3c(Nc4ccc(I)cc4F)n(C)c(=O)c(C)c32)c1 [Trametinib] (partner 0.02 µM)
How it was run: as §1

[4] = compound: O[C@@H](COc1cccc2ncccc12)CN1CCN([C@@H]2c3ccccc3[C@@H]3[C@H](c4ccccc42)C3(F)F)CC1 [Zosuquidar] + CC(C)C[C@H](NC(=O)[C@H](Cc1ccccc1)NC(=O)c1cnccn1)B(O)O [Bortezomib] (partner 0.002 µM)
How it was run: as §1

| Cell Line | relative viability ([1]; first compound 0.2 µM) | relative viability ([1]; first compound 0.6325 µM) | relative viability ([1]; first compound 2 µM) | relative viability ([1]; first compound 6.325 µM) | relative viability ([1]; first compound 20 µM) | relative viability ([2]; first compound 0.02 µM) | relative viability ([2]; first compound 0.06325 µM) | relative viability ([2]; first compound 0.2 µM) | relative viability ([2]; first compound 0.6325 µM) | relative viability ([2]; first compound 2 µM) | relative viability ([3]; first compound 0.01 µM) | relative viability ([3]; first compound 0.03162 µM) | relative viability ([3]; first compound 0.1 µM) | relative viability ([3]; first compound 0.3162 µM) | relative viability ([3]; first compound 1 µM) | relative viability ([4]; first compound 0.01 µM) | relative viability ([4]; first compound 0.03162 µM) | relative viability ([4]; first compound 0.1 µM) | relative viability ([4]; first compound 0.3162 µM) | relative viability ([4]; first compound 1 µM) |
| --- | --- | --- | --- | --- | --- | --- | --- | --- | --- | --- | --- | --- | --- | --- | --- | --- | --- | --- | --- | --- |
| NCI-H2023 | 0.232 | 0.218 | 0.207 | 0.199 | 0.196 | 0.45 | 0.531 | 0.369 | 0.311 | 0.248 | 0.595 | 0.669 | 0.574 | 0.702 | 0.596 | 0.93 | 0.939 | 0.878 | 1.4 | 1.06 |
| ChaGo-K-1 | 0.538 | 0.524 | 0.512 | 0.469 | 0.481 | 0.552 | 0.652 | 0.519 | 0.634 | 0.542 | 0.893 | 0.922 | 0.874 | 0.943 | 0.897 | 0.854 | 0.966 | 1.08 | 0.967 | 0.787 |
| COR-L 105 | 0.706 | 0.679 | 0.473 | 0.739 | 0.602 | 0.352 | 0.283 |  | 0.314 | 0.314 | 0.459 | 0.435 | 0.408 | 0.266 | 0.481 | 0.738 | 0.742 | 0.899 | 1.16 | 0.874 |
| SK-MES-1 | 0.411 | 0.378 | 0.335 | 0.396 | 0.321 | 0.335 | 0.518 | 0.293 | 0.432 | 0.242 | 0.616 | 0.494 | 0.535 | 0.563 | 0.549 |  |  |  |  |  |
| A549 | 0.228 | 0.266 | 0.414 | 0.251 | 0.247 |  |  |  |  |  |  |  |  |  |  |  |  |  |  |  |
| NCI-H23 | 0.2 | 0.345 | 0.316 | 0.304 | 0.39 |  | 1.17 | 0.808 | 0.936 | 0.598 | 0.363 |  | 0.411 | 0.441 | 0.402 | 0.956 | 1.24 | 1.15 | 1.3 | 1.33 |
| NCI-H1993 | 0.598 | 0.583 | 0.537 | 0.535 | 0.593 | 0.513 | 0.488 | 0.49 | 0.498 | 0.523 | 0.483 | 0.5 |  | 0.591 | 0.508 | 1.02 | 0.99 | 1.08 | 1.17 | 1.11 |
| Calu-6 |  |  |  |  |  |  |  |  |  |  |  |  |  |  |  | 0.955 | 1.05 | 1.13 | 1.05 | 1.15 |
| NCI-H1648 | 0.657 | 0.489 | 0.402 | 0.533 | 0.509 |  |  |  |  |  | 0.479 | 0.454 | 0.465 | 0.469 | 0.408 |  |  |  |  |  |
| NCI-H1623 |  |  |  |  |  | 0.483 | 0.606 | 0.486 | 0.486 | 0.568 |  |  |  |  |  |  |  |  |  |  |
| NCI-H460 |  | 0.486 | 0.525 | 0.472 | 0.454 | 0.321 | 0.607 | 0.496 | 0.493 | 0.565 | 0.13 | 0.142 | 0.157 | 0.239 | 0.0685 | 1.01 | 1.09 | 1.14 | 1.07 | 1.1 |
